Assay results reported in patent publication US20230274799A1, “SYSTEMS AND METHODS FOR PATIENT STRATIFICATION AND IDENTIFICATION OF POTENTIAL BIOMARKERS” (Berg LLC, priority 2016, published 2023).
Where “and” joins values, the source holds several entries; their conditions need not be identical. Identical values can stand only once.

Key:
Type in all cases: in vivo, human
[1] = Phase I trial, adverse events (CTCAE v4.02)
Description: (§1) The study is a standard 3+3 dose escalation design with the dose escalated in successive cohorts of 3 to 6 patients each. Toxicity at each dose level is graded according to National Cancer Institute Common Terminology Criteria for Adverse Events (CTCAE v4.02). Safety oversight is provided by the Cohort Review Committee (CRC). If none of the 3 patients in a cohort experiences a DLT during Cycle 1, then 3 new patients may be entered at the next higher dose level following CRC review of safety and PK data from lower cohorts. The clinical trial is described in greater detail in WO2015/035094, which is incorporated by reference herein in its entirety.
Four grade 3 events were reported. During the time period covered by Example 1, 1503 adverse events were reported. 75 events were reported as serious. Of the serious adverse events, 27 were not related, 38 were unlikely related, 8 were possibly related, one was probably related and, one was definitely related (activated partial thromboplastin time (APTT) prolonged).
The table below contains the adverse events reported with a frequency of 4% or greater.

solid tumors = assay: Tumor response evaluation in Phase I trial; settings: Sixteen of 66 patients
Description: Tumor response was evaluated at week 2 and then after every 2 cycles. Sixteen of 66 patients (24%) maintained a minimum of Stable Disease for >4 cycles. Tumor response data was used to stratify the patients into “overall clinical benefit” or “no clinical benefit” groups.

[2] = Phase I dose-escalation trial, dose limiting toxicities of Coenzyme Q10 monotherapy (Arm 1)
Description: (§2) The clinical trial is a multicenter, open-label, non-randomized, dose-escalation study to examine the dose limiting toxicities (DLT) of Coenzyme Q10 administered as a 144-hour continuous intravenous (IV) infusion as monotherapy (treatment Arm 1) and in combination with chemotherapy (treatment Arm 2) in patients with solid tumors. A broad range of solid tumors has been evaluated, including prostate, colon, breast, lung and pancreatic tumors, as shown in Tables 1 and 2 below. Coenzyme Q10 was administered in three consecutive 48 hour doses or two consecutive 72 hour doses, depending on the dose level. Three standard weekly chemotherapy regimens of gemcitabine, 5-fluorouracil, or docetaxel were evaluated in combination with Coenzyme Q10. Eligible patients are 18 years of age or older, afflicted with solid tumors, and relapsed/refractory to standard therapy. 85 patients have been enrolled in the trial. The monotherapy arm received Coenzyme Q10 for 6 days in continuous infusion in 28 day cycles, and the combination arms (gemcitabine, 5-fluorouracil, or docetaxel) were primed for 3 weeks with Coenzyme Q10 before initiation of standard chemotherapy, followed by weekly dosing in a 6 week cycle.
as §1
DLTs were reported at 171 mg/kg in the Coenzyme Q10 monotherapy arm and at 137 mg/kg in the gemcitabine arm (maximum administered dose) and were coagulopathy-related. 3 DLTs were reported during the time period covered by Example 1. […] The event resolved in 2 days after administration of Vitamin K and fresh frozen plasma (FFP). Three additional patients were enrolled at this dose level with no additional DLTs reported. […] According to trial design, patients were being enrolled into the next lowest dose level (110 mg/kg).
Table 4. Dose limiting toxicities for Coenzyme Q10 monotherapy. The number of patients enrolled at each dose level (DL) is shown in parentheses. DL4 and DL5 were administered in two consecutive 72 hour IV infusions. All other dose levels were administered by three consecutive 48 hour IV infusions.

[3] = Phase I dose-escalation trial, dose limiting toxicities of Coenzyme Q10 in combination with chemotherapy (Arm 2)
Description: as §2
The study is a standard 3+3 dose escalation design with the dose escalated in successive cohorts of 3 to 6 patients each. […]

[4] = Grade 2, 3*, adverse events with frequency of 4% or greater
[5] = time period covered by Example 1

## COC1=C(OC)C(=O)C(C/C=C(\C)CC/C=C(\C)CC/C=C(\C)CC/C=C(\C)CC/C=C(\C)CC/C=C(\C)CC/C=C(\C)CC/C=C(\C)CC/C=C(\C)CCC=C(C)C)=C(C)C1=O [Coenzyme Q10]
[1]; Grade 2, 3
  Anemia, Number of Occurrences: 38
  Anemia, Percentage of Occurrences: (15%)
  Elevated AST, Number of Occurrences: 14
  Elevated AST, Percentage of Occurrences: (6%)
  Fatigue, Number of Occurrences: 11
  Fatigue, Percentage of Occurrences: (4%)
[1]; [4]
  Elevated PT/PTT/INR, Number of Occurrences: 67
  Elevated PT/PTT/INR, Percentage of Occurrences: (26%)
[1]; Grade 2, 3, 4*
  Thrombocytopenia, Number of Occurrences: 34
  Thrombocytopenia, Percentage of Occurrences: (13%)
[1]; Grade 2, 4*
  Hypertriglyceridemia, Number of Occurrences: 15
  Hypertriglyceridemia, Percentage of Occurrences: (6%)
[1]; in vivo
  Number of grade 3 PT/PTT/INR prolongation events reported: Four
[1]; mitigated after Vitamin K administration
  Most common related adverse events: grade 1-2 prothrombin time (PT)/partial thromboplastin time(PTT)/International Normalized Ratio (INR) prolongation
[1]; of 75 serious events
  Serious adverse events not related: 27
  Serious adverse events possibly related: 8
  Serious adverse events probably related: one
  Serious adverse events unlikely related: 38
[1]; of 75 serious events, activated partial thromboplastin time (APTT) prolonged
  Serious adverse events definitely related: one
[1]; [5]
  Number of adverse events reported: 1503
  Number of events reported as serious: 75
Solid tumors
  Patients who maintained a minimum of Stable Disease for >4 cycles: 24%
[2]; Mono Dose Level 5 (171 mg/kg), after administration of Vitamin K and fresh frozen plasma
  Time to resolution of DLT event (grade 3 PTT abnormality): 2 days
[2]; monotherapy DL1 - 66 mg/kg (9 enrolled), three consecutive 48 hour IV infusions, cell wraps r7-r9: Grade 3 Elevated Liver Function Test*, *readjudicated to unlikely related to protocol therapy
  Dose Limiting Toxicity: Grade 3 Elevated
[2]; monotherapy DL2 - 88 mg/kg (4 enrolled), three consecutive 48 hour IV infusions
  Dose Limiting Toxicity: None
[2]; monotherapy DL3 - 110 mg/kg (5 enrolled), three consecutive 48 hour IV infusions
  Dose Limiting Toxicity: None
[2]; monotherapy DL4 - 137 mg/kg (4 enrolled), two consecutive 72 hour IV infusions
  Dose Limiting Toxicity: None
[2]; monotherapy DL5 - 171 mg/kg (8 enrolled), two consecutive 72 hour IV infusions, cell wraps r20-r21: 1 DLT: Grade 3 PTT elevation
  Dose Limiting Toxicity: grade 3 partial thromboplastin time (PTT) abnormality and 1 DLT: Grade 3
[2]; whole trial (mono and combination arms), time period covered by Example 1
  Number of DLTs reported: 3
[3]; DL4 - 110 mg/kg with Gemcitabine 1,000 mg/m^2 (6 enrolled), two consecutive 72 hour infusions, cell wraps r34-r38: None to Date- need 3 more evaluable patients to determine MTD
  Dose Limiting Toxicity: None to Date-
[3]; in vivo
  Dose Limiting Toxicity: None
